In ChEMBL document CHEMBL1201862, “PubChem BioAssay data set” (2004):
Active and inactive are the calls of the source.

How the values were obtained:
[1] = molecular target: Estrogen receptor beta (Homo sapiens, UniProt Q92731);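 further: recombinant ER-beta bound to coactivator SRC1 peptide in presence of estradiol agonist; inhibitors block coactivator peptide binding and lower the FRET signal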
[2] = system: H4; experiment: Luminescence Cell-Based Dose Response HTS to Identify Activators of 5'UTR Stem-Loop Driven Prion Protein mRNA Translation in H4 Neuroglioblastoma Cells. [Related pubchem assays: 1829 (Project Summary), 1814 (Primary HTS)]; assay type: functional; conditions: Homo sapiens
[3] = molecular target: T1, Caspase-3 (Homo sapiens, UniProt P42574); assay type: functional;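 further: Dose-response selectivity test against caspase-3 for candidate inhibitors of sentrin-specific proteases (SENPs)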
T1 sequence (P42574 whole entry): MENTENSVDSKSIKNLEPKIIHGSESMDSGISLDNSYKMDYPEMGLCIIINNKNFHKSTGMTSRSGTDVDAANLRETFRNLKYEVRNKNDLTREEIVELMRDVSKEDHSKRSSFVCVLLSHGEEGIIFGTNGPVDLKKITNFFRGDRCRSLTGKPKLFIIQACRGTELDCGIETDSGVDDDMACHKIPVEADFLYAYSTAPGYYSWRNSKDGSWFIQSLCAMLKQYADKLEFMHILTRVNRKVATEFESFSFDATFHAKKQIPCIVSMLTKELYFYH

[4] = Luminescence Cell-Based Dose Response HTS to Identify Activators of Luciferase Translation or Activity in H4 […] Cells. [Related pubchem assays: 1829 (Project Summary), 1814 (Primary HTS)]; assay type: functional
[5] = Luminescence Cell-Based Dose Confirmation HTS to Identify Activators of 5'UTR Stem-Loop Driven Alpha-Synuclein mRNA Translation in H4 Neuroglioblastoma Cells. [Related pubchem assays: 1829 (Project Summary), 1814 (Primary HTS)]; assay type: functional
[6] = molecular target: T2, Sentrin-specific protease 8 (Homo sapiens, UniProt Q96LD8); assay type: functional;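 further: luminescence read-out of SENP8 inhibition, dose-response confirmation following an ultra-high-throughput screen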
T2 sequence (Q96LD8 whole entry): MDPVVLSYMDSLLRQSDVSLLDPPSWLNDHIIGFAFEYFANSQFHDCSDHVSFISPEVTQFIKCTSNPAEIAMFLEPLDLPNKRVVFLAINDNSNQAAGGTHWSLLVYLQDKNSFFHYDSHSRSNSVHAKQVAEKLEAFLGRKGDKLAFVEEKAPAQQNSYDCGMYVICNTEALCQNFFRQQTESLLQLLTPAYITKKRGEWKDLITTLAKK

[7] = molecular target: T3, Sentrin-specific protease 6 (Homo sapiens, UniProt Q9GZR1); assay type: functional;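 further: Luminescence-based dose-response confirmatory assay of SENP6 inhibition, following up an ultra-high-throughput screen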
T3 sequence (Q9GZR1 whole entry): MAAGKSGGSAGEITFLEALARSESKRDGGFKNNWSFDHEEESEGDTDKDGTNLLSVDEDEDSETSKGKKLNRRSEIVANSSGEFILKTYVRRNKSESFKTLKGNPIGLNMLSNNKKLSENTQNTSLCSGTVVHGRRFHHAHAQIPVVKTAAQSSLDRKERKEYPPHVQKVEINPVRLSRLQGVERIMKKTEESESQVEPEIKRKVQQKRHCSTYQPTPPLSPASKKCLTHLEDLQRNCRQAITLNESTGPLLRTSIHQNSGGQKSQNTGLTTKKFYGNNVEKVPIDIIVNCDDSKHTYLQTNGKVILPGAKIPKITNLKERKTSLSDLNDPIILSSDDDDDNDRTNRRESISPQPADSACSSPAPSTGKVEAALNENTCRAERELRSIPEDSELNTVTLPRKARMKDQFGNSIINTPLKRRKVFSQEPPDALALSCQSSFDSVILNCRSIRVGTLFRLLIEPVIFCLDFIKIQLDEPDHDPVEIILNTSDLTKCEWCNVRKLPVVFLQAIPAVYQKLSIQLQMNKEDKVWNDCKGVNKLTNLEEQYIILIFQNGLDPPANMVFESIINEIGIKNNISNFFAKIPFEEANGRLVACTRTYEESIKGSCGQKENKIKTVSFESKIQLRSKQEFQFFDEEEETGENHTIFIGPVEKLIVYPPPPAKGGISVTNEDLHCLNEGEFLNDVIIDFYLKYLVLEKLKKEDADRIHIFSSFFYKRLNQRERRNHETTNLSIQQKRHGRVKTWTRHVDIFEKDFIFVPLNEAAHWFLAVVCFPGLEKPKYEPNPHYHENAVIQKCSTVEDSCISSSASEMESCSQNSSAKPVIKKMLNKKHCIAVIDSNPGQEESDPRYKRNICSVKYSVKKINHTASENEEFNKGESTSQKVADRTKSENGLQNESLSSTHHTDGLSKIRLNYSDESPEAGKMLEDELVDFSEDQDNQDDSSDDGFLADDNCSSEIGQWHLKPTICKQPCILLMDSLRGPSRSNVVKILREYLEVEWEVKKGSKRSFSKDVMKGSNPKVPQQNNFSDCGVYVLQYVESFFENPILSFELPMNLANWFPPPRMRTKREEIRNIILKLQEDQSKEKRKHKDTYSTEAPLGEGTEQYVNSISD

[8] = molecular target: T4, Sentrin-specific protease 7 (Homo sapiens, UniProt Q9BQF6); assay type: functional;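 further: Luminescence-based dose-response confirmation of ultra-high-throughput screening hits, measuring inhibition of SENP7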
T4 sequence (Q9BQF6 whole entry): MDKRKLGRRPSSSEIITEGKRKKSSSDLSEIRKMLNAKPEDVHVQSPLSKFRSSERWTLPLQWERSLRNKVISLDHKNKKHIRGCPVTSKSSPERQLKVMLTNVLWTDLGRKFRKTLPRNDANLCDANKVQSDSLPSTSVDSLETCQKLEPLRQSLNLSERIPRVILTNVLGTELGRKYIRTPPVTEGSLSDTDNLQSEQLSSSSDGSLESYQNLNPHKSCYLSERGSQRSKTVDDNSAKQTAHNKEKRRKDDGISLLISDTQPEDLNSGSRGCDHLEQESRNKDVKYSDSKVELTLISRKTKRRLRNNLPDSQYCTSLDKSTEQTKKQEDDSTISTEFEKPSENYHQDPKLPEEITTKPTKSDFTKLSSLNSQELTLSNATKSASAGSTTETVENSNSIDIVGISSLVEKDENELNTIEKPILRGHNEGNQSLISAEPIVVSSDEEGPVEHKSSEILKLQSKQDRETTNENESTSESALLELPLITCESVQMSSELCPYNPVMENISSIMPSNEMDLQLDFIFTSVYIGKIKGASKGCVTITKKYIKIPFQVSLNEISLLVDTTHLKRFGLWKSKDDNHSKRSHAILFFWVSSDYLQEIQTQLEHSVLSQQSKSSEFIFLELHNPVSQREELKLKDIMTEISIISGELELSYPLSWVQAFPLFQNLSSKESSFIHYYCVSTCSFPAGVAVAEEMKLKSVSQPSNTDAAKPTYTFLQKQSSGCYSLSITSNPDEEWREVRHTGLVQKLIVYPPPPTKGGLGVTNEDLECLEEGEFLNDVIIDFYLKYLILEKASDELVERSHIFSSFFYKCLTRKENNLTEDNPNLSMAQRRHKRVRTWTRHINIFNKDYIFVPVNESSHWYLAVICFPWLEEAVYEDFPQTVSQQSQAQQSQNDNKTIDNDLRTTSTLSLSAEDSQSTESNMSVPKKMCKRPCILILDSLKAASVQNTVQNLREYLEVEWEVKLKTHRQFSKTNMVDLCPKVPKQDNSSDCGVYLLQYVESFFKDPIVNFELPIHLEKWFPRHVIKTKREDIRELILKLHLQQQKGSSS

[9] = molecular target: T5, Estrogen receptor (Homo sapiens, UniProt P03372);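 further: potency for inhibiting coactivator peptide recruitment to the receptor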
T5 sequence (P03372 whole entry): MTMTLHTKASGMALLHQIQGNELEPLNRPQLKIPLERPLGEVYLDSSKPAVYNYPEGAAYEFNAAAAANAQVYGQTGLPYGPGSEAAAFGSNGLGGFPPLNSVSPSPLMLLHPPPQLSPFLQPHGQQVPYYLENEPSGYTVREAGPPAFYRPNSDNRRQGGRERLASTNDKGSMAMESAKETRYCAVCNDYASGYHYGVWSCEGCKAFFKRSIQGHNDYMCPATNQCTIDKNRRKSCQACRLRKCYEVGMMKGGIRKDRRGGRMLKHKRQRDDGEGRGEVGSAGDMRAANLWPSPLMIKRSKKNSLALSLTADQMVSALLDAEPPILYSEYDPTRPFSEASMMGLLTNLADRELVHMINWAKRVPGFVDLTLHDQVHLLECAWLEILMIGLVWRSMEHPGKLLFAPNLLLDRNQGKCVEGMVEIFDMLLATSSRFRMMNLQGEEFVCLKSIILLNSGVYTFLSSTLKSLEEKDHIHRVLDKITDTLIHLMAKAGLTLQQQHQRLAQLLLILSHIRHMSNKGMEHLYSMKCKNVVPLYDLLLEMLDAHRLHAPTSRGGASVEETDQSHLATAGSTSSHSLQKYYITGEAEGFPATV

[10] = molecular target: T6, Histone-lysine N-methyltransferase NSD2 (Homo sapiens, UniProt O96028); assay type: biochemical
T6 sequence (O96028 whole entry): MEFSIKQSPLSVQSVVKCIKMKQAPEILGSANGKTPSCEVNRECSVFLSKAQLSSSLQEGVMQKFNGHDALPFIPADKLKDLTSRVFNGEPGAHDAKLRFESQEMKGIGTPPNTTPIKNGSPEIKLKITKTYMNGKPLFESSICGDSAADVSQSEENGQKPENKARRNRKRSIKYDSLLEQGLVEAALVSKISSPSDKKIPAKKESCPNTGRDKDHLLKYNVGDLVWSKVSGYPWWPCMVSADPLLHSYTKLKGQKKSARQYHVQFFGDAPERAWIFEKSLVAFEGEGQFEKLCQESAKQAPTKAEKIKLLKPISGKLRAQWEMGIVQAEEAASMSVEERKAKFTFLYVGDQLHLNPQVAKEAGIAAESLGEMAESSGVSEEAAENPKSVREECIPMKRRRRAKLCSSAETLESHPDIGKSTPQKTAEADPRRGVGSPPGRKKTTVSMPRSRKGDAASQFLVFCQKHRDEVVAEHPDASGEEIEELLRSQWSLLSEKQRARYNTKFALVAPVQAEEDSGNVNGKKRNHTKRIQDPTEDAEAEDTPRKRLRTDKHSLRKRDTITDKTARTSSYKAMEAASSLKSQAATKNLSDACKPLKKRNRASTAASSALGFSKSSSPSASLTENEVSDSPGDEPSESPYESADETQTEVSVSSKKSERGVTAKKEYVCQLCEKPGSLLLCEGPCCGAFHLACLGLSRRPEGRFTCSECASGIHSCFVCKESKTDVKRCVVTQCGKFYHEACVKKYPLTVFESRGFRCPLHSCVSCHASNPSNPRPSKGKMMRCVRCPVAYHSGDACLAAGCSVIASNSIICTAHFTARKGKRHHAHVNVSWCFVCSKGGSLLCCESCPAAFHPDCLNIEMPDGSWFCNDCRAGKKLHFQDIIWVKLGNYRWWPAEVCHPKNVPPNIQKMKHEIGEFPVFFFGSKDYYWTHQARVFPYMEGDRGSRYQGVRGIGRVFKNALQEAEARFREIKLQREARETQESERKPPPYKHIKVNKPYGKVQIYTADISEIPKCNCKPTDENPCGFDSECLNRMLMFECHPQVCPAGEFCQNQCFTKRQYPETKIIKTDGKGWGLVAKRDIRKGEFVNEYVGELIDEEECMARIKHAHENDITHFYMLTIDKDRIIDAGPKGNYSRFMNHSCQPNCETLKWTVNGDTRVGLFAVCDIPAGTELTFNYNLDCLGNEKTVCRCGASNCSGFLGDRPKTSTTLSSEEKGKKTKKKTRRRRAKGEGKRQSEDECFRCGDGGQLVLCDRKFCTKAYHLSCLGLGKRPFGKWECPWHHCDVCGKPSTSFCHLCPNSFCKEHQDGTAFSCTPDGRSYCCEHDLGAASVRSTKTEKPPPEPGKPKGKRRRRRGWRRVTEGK

[11] = A Cell Based Secondary Assay To Explore Cytotoxicity of Compounds that Sensitize Mycobacterium Tuberculosis to Beta-Lactam Antibiotics.; assay type: functional
[12] = viability of uninfected HEp-2 cells – cell-based, HTS, cytotoxicity control for RSV inhibitor project, dose response (AID 2410); assay type: functional; conditions: human respiratory syncytial virus
[13] = viability of HCT116 lacking mutant beta-catenin – cell-based, human colon tumor, dose response (AID 1045); assay type: functional;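 further: HCT116 colon tumor cells with beta catenin knocked out; cells exposed to compound for 60 hours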
[14] = viability of PTEN-deleted HCT116 cells – cell-based, HCT116 PTEN knockout, dose response (AID 1047); assay type: functional;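 further: HCT116 colon tumor cells with PTEN knocked out; cells exposed to compound for 60 hours before readout; potency for loss of cell viability measured by luminescence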

Estrogen receptor beta, sequence (Q92731 whole entry): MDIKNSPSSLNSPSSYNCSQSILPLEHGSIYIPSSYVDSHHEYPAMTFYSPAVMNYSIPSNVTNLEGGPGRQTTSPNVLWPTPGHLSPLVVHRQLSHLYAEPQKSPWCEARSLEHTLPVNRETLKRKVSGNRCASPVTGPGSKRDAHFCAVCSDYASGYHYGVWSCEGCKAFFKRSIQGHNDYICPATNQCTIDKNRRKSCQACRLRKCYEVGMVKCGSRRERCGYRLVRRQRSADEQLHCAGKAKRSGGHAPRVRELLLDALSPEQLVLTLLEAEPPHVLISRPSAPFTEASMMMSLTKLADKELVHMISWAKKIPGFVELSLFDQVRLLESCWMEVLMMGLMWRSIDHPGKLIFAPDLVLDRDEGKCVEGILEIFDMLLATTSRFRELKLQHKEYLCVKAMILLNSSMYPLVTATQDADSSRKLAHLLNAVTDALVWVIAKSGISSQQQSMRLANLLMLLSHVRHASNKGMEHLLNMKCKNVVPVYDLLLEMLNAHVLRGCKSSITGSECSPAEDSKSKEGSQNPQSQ

With `CC(C)CSc1nc2c(c(=O)[nH]c(=O)n2C)n1CC(O)COc1cccc2ccccc12` (stereo not given) the IC50 [1] was > 50 µM (not active).

For `c1ccc(-c2nc(C3CCCCC3)no2)cc1`, the EC50 [2] was > 120 µM (not active), the IC50 [3] was 57.1 µM (active) and the EC50 [4] was 0.896 µM (active). For the same compound, the EC50 [5] was 32.8 µM (active), the IC50 [1] was > 50 µM (not active) and the IC50 [6] was > 100 µM (inactive). For the same compound, the IC50 [7] was 66.3 µM (active) and the IC50 [8] was 23.2 µM (active).

For `COC(=O)c1ccc2c(c1)N(Cc1nc(-c3cccc(C)c3)oc1C)C(=O)C1CCCN21` (stereo not given), the IC50 [9] was > 50 µM (not active).

For `CNCCCC1Sc2ccccc2Oc2ccccc21` (stereo not given), the AC50 [10] was 9.84 µM (active).

With `CC(=O)N(C(C)=O)c1c(C#N)c(C)n(-c2ccccc2)c1C(=O)c1ccccc1` the IC50 [9] was > 50 µM (not active).

With `Cc1cc(C)n2nc(SCc3cc(=O)oc4cc(O)ccc34)nc2n1` the IC50 [9] was 10.1 µM (active).

For `Cc1nc2sc3c(c2c2nnc(SCC(=O)NCc4ccco4)n12)CCCC3`, the CC50 [11] was 31.8 µM (active).

For `CCC(C)NCCOCCOc1ccc(Cl)c2ccccc12` (stereo not given), the CC50 [11] was 18.4 µM (active).

In the case of `COC(=O)C1=C(C)NC(=O)/C1=C\c1cc(C)n(-c2c(C)cccc2C)c1C`, the CC50 [12] is reported as 1.88 µM (active) and the CC50 [11] is reported as > 40 µM (active).

In the case of `Cc1ccsc1/C=N/Nc1ncc(Cl)cc1Cl`, the CC50 [11] is reported as 32.4 µM (active), the EC50 [13] is reported as 15.5 µM (active) and the EC50 [14] is reported as 12.9 µM (active).
